The source of these data is patent publication US9079886B2, “Substituted triazole derivatives as gamma secretase modulators” (Janssen Pharmaceuticals, Inc., priority 2010, dated 2015).

For orientation: melting point means the temperature of the solid-liquid transition.

SMILES strings stand for the structures. Where a name gives a salt, the structure may show the parent alone.

As for `COc1cccc(C2CCN(c3nc(Nc4ccc(-n5cnc(C)c5)c(OC)c4)nn3C(C)C)C2)c1` (centres unmarked) [Compound 53], the melting point came out at 169.9 °C.
The value for `COc1cc(Nc2nc(Oc3ccc(F)cc3C)n(C(C)C)n2)ccc1-c1ccnc(C)c1` [Compound 163] was 172.7 °C; that for `COc1cc(Nc2nc(Oc3ccccc3Cl)n(C)n2)ccc1-c1ccnc(C)c1` [Compound 61] was 175 °C.
Compound `COc1cc(Nc2nc(Oc3ccccc3Cl)n(C)n2)ccc1-n1cnc(C)c1` [Compound 51] had a melting point of 210.1 °C.
Turning to `Cc1cc(-c2ccc(Nc3nc(Oc4cccc(Cl)c4C)n(C(C)C)n3)cc2)ccn1` [Compound 157], the melting point came out at 159.6 °C.
The value for `COc1cc(Nc2nc(N3CCc4ccccc4C3)n(C)n2)ccc1-n1cnc(C)c1` [Compound 56] was 170.1 °C; that for `Cc1cc(-c2ccc(Nc3nc(-c4cccc(C(F)(F)F)c4)n(C(C)C)n3)cc2)ccn1` [Compound 137] was 210.3 °C.
In turn, `COc1cc(-c2ccc(Nc3nc(Oc4ccc(F)cc4C)n(C(C)C)n3)cc2)ccn1` [Compound 180] came in with a melting point of 132.8 to 143.6 °C.
In the case of `COc1cc(Nc2nc(Oc3ccccc3Cl)n(CCNC(C)C)n2)ccc1-c1ccnc(C)c1` [Compound 149] it was 138.6 °C; in that of `COc1cc(Nc2nc(N3CCc4ccccc4C3)n(C(C)C)n2)ccc1-n1cnc(C)c1` [Compound 57], 214.5 °C.
In the case of `Cc1cc(F)ccc1Oc1nc(Nc2ccc(-c3ccncc3)cc2)nn1C(C)C` [Compound 112] it was 204.1 to 205.4 °C; in that of `COc1cc(Nc2nc(Oc3cccc(Cl)c3C)n(C(C)C)n2)ccc1-n1cnc(C)n1` [Compound 8], 157.2 °C.
In the case of `COc1cc(Nc2nc(Oc3ccccc3C(F)(F)F)n(C)n2)ccc1-c1ccnc(C)c1` [Compound 166] it was 159.6 °C.
`COc1cc(Nc2nc(OC3CCCC(C(F)(F)F)C3)n(C(C)C)n2)ccc1-c1ccnc(C)c1` (centres unmarked) (as salt: HCl) (hydrate or solvate) [Compound 117] came in with a melting point of 131.5 °C.
For the compound `Cc1cc(-c2ccc(Nc3nc(Oc4ccc(F)cc4C)n(C(C)C)n3)cc2)ccn1` [Compound 164], the melting point was determined as 138.9 °C.
The value for `COc1cc(Nc2nc(Oc3cccc(Cl)c3)n(C(C)C)n2)ccc1-c1ccnc(C)c1` [Compound 158] was 125.4 °C; that for `COc1cc(Nc2nc(Oc3ccccc3Cl)n(C(C)C)n2)ccc1-n1cnc(C)n1` [Compound 4] was 202.7 °C; that for `COc1cc(Nc2nc(N3CCCC(C(F)(F)F)C3)n(C)n2)ccc1-n1cnc(C)c1` (centres unmarked) [Compound 2] was 199.9 °C.
In the case of `COc1cc(Nc2nc(Oc3cc(C(F)(F)F)ccc3F)n(C)n2)ccc1-c1ccnc(C)c1` [Compound 168] it was 145.1 °C; in that of `COc1nc(Nc2nc(-c3cccc(C(F)(F)F)c3)n(C(C)C)n2)ccc1-n1cnc(C)c1` [Compound 17], 185.1 °C; in that of `COc1cc(Nc2nc(N3CCN(C(=O)OC(C)(C)C)CC3)n(C(C)C)n2)ccc1-c1ccnc(C)c1` [Compound 132], 177.1 °C.
In turn, `Cn1nc(Nc2ccc(-c3ccncc3)cc2)nc1-c1cccc(C(F)(F)F)c1` [Compound 113] returned a melting point of 220.7 °C.
The value for `COc1ccc(-c2ccc(Nc3nc(Oc4ccc(F)cc4C)n(C(C)C)n3)cc2)cn1` [Compound 179] was 142.7 to 144.7 °C; that for `COc1cc(Nc2nc(Oc3cccc(N4CCOCC4)c3)n(C(C)C)n2)ccc1-c1ccnc(C)c1` [Compound 171] was 169.3 °C.
In turn, `COc1cc(Nc2nc(Oc3ccc(F)cc3C(F)(F)F)n(C(C)C)n2)ccc1-c1ccnc(C)c1` [Compound 169] registered a melting point of 134.8 °C.
`Cc1cc(-c2ccc(Nc3nc(-c4cccc(C(F)(F)F)c4)n(C)n3)cc2)ccn1` [Compound 60] registered a melting point of 184.2 °C.
